# Assays:
# [1] = target: T1, SHBG (Homo sapiens, UniProt P04278); test: Estimation of equilibrium (association) constants Ka inhibitor/SHBG, assuming competitive binding; conditions: association constant inhibitor/SHBG; Table 3
# T1 sequence (P04278 30-402): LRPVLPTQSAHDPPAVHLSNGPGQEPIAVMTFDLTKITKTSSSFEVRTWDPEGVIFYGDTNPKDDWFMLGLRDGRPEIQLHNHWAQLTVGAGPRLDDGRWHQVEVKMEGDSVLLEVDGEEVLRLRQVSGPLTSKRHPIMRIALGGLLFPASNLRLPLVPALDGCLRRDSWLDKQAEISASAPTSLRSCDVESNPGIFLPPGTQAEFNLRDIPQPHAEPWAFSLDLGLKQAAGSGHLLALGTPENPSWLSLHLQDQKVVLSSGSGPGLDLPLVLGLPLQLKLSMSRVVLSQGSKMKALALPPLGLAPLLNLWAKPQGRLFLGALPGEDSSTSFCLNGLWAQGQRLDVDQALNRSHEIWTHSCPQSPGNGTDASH
# From the text: With the assumption of competitive binding the estimation of equilibrium constants is possible. Two reactions exist in competition with one another: [drawing 50] [drawing 51]
# [2] = target: T1, SHBG; test: Concentration dependence: remaining SHBG activity to 5α-dihydrotestosterone (DHT) with varying concentrations of the compounds; assay type: binding; conditions: DHT concentration of 9.6 nM
# Description: In order to determine the strength of the interaction of the compounds produced according to the present invention, tests were carried out investigating remaining SHBG activity to 5α-dihydrotestosterone (DHT) with varying concentrations of the compounds, DHT being a natural hormone that binds with SHBG.
SMILES,Ka [1] [M⁻¹],Remaining SHBG Activity ([2]; @ 6*10^-4M compound) [% @ 6*10^-4M],Remaining SHBG Activity ([2]; @ 6.2*10^-4M compound) [% @ 6.2*10^-4M],Remaining SHBG Activity ([2]; @ 3.2*10^-4M compound) [% @ 3.2*10^-4M]
COC(=O)C(Cc1ccc(O)c(OC)c1)C(Cc1ccc(O)c(OC)c1)C(=O)OC (centres unmarked) [IIa],60000,30,,
COc1cc(CC2COC(C)(C)OCC2Cc2ccc(O)c(OC)c2)ccc1O (centres unmarked) [III'a],,,75,
COc1cc(CC(CO)C(CO)Cc2ccc(O)c(OC)c2)ccc1O (centres unmarked) [IIIa],20000,,,50
